Source: patent US8784856B2, “Meadowfoam-based bioherbicide products” (The State of Oregon Acting by and Through the State Boad of …, priority 2007, dated 2014)
“Also recorded” adds a separate entry of the source.

How the values were obtained:
[1] = test system: potato cyst Nematode (Globodera rostochiensis Ct. Woll); details: in vivo; cited from earlier work
fungi = details: cited from earlier work
[2] = test system: root lesion nematode (Pratylenchus neglectus); details: in vivo; cited from earlier work
Wheat [3] = details: in vivo; cited from earlier work
[4] = test system: postharvest fruit pathogens; details: cited from earlier work
[5] = test system: downy brome (Bromus tectorum) seeds; assay: Assay for herbicidal activity: downy brome seed germination in soil; format: in vivo; details: for inhibition of downy brome germination at the highest concentration tested: 0.89 mg g^−1, FIG. 11; for effectiveness in inhibiting downy brome germination, in words: FIG. 11, comparison of compounds 1-4; for activity as seed germination inhibitors (downy brome): compared with MBITC, 82 hours and 168 hours, FIG. 8
Procedure: Assay for herbicidal activity. About 45 g of clean soil was weighed into 10-cm diameter Petri dishes. For germination testing of individual compounds (1-4), 15.0 mL of test solution was added to each dish. Glucolimanthin 1 (GLN) was dissolved in water and compounds 2-4 in ethanol. The ethanolic solutions were applied to the dishes, allowed to evaporate overnight in a hood, and then 15 mL of water was added to the dishes. Meal products were mixed with soil, followed by the addition of 15 mL of water. Fifteen seeds of Bromus tectorum were placed in concentric circles within each dish. Petri dishes with lids were placed in an incubator at 20° C. during day time (8 hrs) and at 15° C. at night time (16 hrs) for 7 days. Germination was recorded as root emergence.

[6] = Degradation of GLN in aqueous FeSO4 solution (HPLC); format: physicochemical; details: 1 mM GLN with 10 mM FeSO4 at room temperature; FIG. 3B
Excerpt: HPLC. The HPLC equipment consisted of a Waters Delta 600 solvent delivery system, a Waters 717 plus Autosampler, a Waters 2996 photodiode array detector, a Waters 600 controller and a data acquisition/processing computer with Empower™ software (Waters, Milford, Mass.). In HPLC system 1, separations were achieved on a reverse-phase Lichrosphere 5 μm C18 column (4×250 mm, Phenomenex, Torrance, Calif.). The HPLC solvents were 0.1% aqueous trifluoroacetic acid (solvent A) and MeCN (solvent B). A linear solvent gradient was employed starting from 5% solvent B in solvent A to 100% B over 30 min at a flow rate of 1.0 mL/min. After returning to the starting conditions in 1 min, the column was equilibrated for 10 min before the next injection. The injection volume was 20 μL. On-line UV spectra were recorded in the range 220-500 nm and the λ274 nm trace was used for calculation of peak areas. Analyte concentrations were determined from calibration curves constructed for each analyte.

[7] = test system: velvetleaf (Abutilon theophrasti); details: in vivo; cited from earlier work
[8] = test system: fall armyworm (Lepidoptera: Noctuidae); details: compared with benzyl ITC and synthetic analogs; cited from earlier work
Wheat [9] = details: in vivo; cited from earlier work; remark: listed apart in the source
Aphamyces euteiches = details: cited from earlier work
[10] = test system: velvetleaf, sicklepod, milo, and pitted morning glory; details: formulated as granules; all weed types; cited from earlier work
Helicobacter pylori = details: cited from earlier work
[11] = test system: phase II enzymes (e.g., NAD(P)H:quinone reductase); details: cited from earlier work
[12] = test system: human retinal pigment epithelial cells, keratinocytes, and mouse leukemia cells; details: cited from earlier work
phase 2 enzymes = details: after treatment; cited from earlier work
[13] = test system: benzo[a]pyrene-induced stomach tumors; details: mice dosed with test compound; cited from earlier work
[14] = test system: skin damage by UV radiation; details: human subjects, topically applied; cited from earlier work

## S=C=NCCc1ccccc1 [2-phenylethyl ITC]
[1]
  activity on potato cyst nematode: performed well
fungi
  activity against fungi: good activity
[2]
  effect on root lesion nematode: suppression
Wheat [3]
  order of effectiveness against wheat: 2-phenylethyl ITC>allyl ITC>benzyl ITC

## C=CCCN=C=S [3-butenyl ITC]
[4]
  activity against spore germination: lower activity

## Oc1ccc(CN=C=S)cc1 [4-hyxdroxybenzl]
[4]
  activity against spore germination: equal

## COc1cccc(C/C(=N/OS(=O)(=O)O)S[C@@H]2O[C@H](CO)[C@@H](O)[C@H](O)[C@H]2O)c1 [GLN, glucolimnanthin]
[5]
  inhibition of downy brome germination at the highest concentration tested: only slightly inhibited
  effectiveness in inhibiting downy brome germination, in words: least effective
[5]; levels corresponding to those found in MSM (0.4 mg GLN per g soil), 7 days, FIG. 7
  effect of GLN on downy brome seed germination: no germination inhibitory activity; also recorded: no effect; also recorded: No difference
[6]
  degradation of GLN: did not result in significant degradation

## COc1cccc(CN=C=S)c1 [MBITC, 3-Methoxybenzyl isothiocyanate]
[7]
  seed germination inhibitory / allelopathic activity against velvetleaf: greater activity
[8]
  effectiveness against armyworm: more effective
[5]
  inhibition of downy brome germination at the highest concentration tested: failed to completely inhibit
  effectiveness in inhibiting downy brome germination, in words: not as effective
  activity as seed germination inhibitors (downy brome): moderately active
Wheat [9]
  seed germination inhibitory / allelopathic activity against wheat: greater activity

## COc1cccc(CC#N)c1 [MPAN, 3-Methoxyphenylacetonitrile]
[7]
  seed germination inhibitory / allelopathic activity against velvetleaf: seed germination inhibitory effects
[5]
  inhibition of downy brome germination at the highest concentration tested: completely inhibiting
  effectiveness in inhibiting downy brome germination, in words: most effective
  activity as seed germination inhibitors (downy brome): more active
Wheat [9]
  seed germination inhibitory / allelopathic activity against wheat: seed germination inhibitory effects

## C=CCN=C=S [allyl ITC]
[4]
  activity against spore germination: equal
Aphamyces euteiches
  performance against pathogen causing pea root rot: performed well
[1]
  activity on potato cyst nematode: performed well
Wheat [3]
  order of effectiveness against wheat: 2-phenylethyl ITC>allyl ITC>benzyl ITC

## S=C=NCc1ccccc1 [benzyl ITC]
[10]
  inhibition of weed germination: inhibition of germination
[4]
  activity against spore germination: lower activity
[1]
  activity on potato cyst nematode: performed well
fungi
  activity against fungi: good activity
Wheat [3]
  order of effectiveness against wheat: 2-phenylethyl ITC>allyl ITC>benzyl ITC

## CN=C=S [methyl ITC]
Aphamyces euteiches
  performance against pathogen causing pea root rot: performed well

## C[S+]([O-])CCCCN=C=S (stereo not shown) [sulforaphane, 4-methylsulfinylbuthyl ITC]
Helicobacter pylori
  antibacterial properties against Helicobacter pylori: bacteriostatic and bactericidal properties
[11]
  induction of phase II enzymes: high activity
[12]
  glutathione after treatment: increase
  protection of cells against oxidative damage: powerful and prolonged protection
Phase 2 enzymes
  phase 2 enzymes in mouse and human skin: Up-regulation
[13]
  effect on benzo[a]pyrene-induced stomach tumors: blocked
[14]
  erythema and inflammation induced by UV radiation: reduced

## CS/C=C/CCN=C=S [trans-4-methylthio-3-butenyl ITC]
[4]
  activity against spore germination: equal
fungi
  activity against fungi: good activity
